The source of these data is paper PMC6176321, “Efficient Synthesis of Glutamate Peptide-Estradiol Conjugate for Imaging Estrogen Receptor-Positive Diseases” (BioMed Research International, 2018).

Series [1] relates to MCF7 (ER+) breast cancer cells. As to the kind of experiment: In vitro cellular uptake assay (sensitivity). Format: cell-based. The conditions noted are these: 50,000 cells/well, 4 uCi/80uL/well, 4ug/well, average of three measurements. The method, then:
(§1) In vitro cellular uptake studies of ^68Ga-GAP-EDL in breast tumor cells were performed. Breast cancer cell lines with high (MCF7; ER+) and low (SK-BR-3; ER-) estrogen receptor densities were used to determine the sensitivity and specificity for the cellular uptake assay. Briefly, for sensitivity assay, breast tumor cells (50,000 cells/well, 12 wells) were added with ^68GaCl3, ^68Ga-GAP, and ^68Ga-GAP-EDL (4 uCi/80uL/well, 4ug/well). The cells were incubated for 0.5-2 hrs. […] After incubation, the supernatant was collected. The cells were washed twice with ice cold PBS (1 ml) and trypsin EDTA (0.1 ml). After 2 min, the cells were collected. The wells were washed twice with cold PBS (0.5ml). The total volume of cell supernatant and the total volume containing cells were transferred to test tube to count the activity separately. Each piece of data represents an average of three measurements. Percentage of uptake (%)=cell activity/(cell supernatant+ cell activity)∗100% was calculated.

The subject of series [2] is SK-BR-3 (ER-) breast cancer cells. Description: In vitro cellular uptake assay (sensitivity). Format: cell-based. The conditions noted are these: 50,000 cells/well, 4 uCi/80uL/well, 4ug/well, average of three measurements. The method, then: as §1
Series [3] in a line: Micro-PET/CT imaging, tumor-to-muscle count density ratio. The conditions noted are these: mouse, in vivo, 0.14 mg per 100uCi (0.2 mL) per mouse, 0.14mg per 100μCi, iv, n=2 per compound. Further details: species or system mice. Here is the method: For PET imaging studies, athymic nude mice (n=2 per compound) inoculated with MCF-7 cells (s.c. 10^6 cells/mouse) at the left hind legs. When tumor reached 0.7cm, the tumor-bearing mice were anesthetized with 2% isoflurane on prone position. ^68Ga chloride (5mCi) was obtained by eluting a ^68Ge/^68Ga generator (20mCi size from Eckert Ziegler, Germany) with HCL (0.1N, 1.5 mL). Labeling GAP (1 mg) and GAP-EDL (1mg) was achieved by dissolving both compounds in sodium acetate (0.4 mL, 0.1N, pH 5.4), followed by adding ^68Ga chloride (1mCi, 0.3mL). Both compounds were sat at 37°C for 20 min. For animal imaging studies, the concentrations were diluted to 1.5mL/mg by adding saline (0.9%). Each mouse was administered with ^68Ga-GAP and ^68Ga-GAP-EDL (0.14mg per 100μCi, 0.2 mL, iv). ^68Ga-GAP and ^68Ga-GAP-EDL imaging studies were performed with a Siemens Inveon micro-PET/CT scanner (Siemens Medical Systems, Hoffman Estates, IL). Three serial 30-minute trans-axial PET images were obtained. All corrections for attenuation, scatter, and dead time were applied to generate quantifiable images. Regions of interests were then drawn on the tumor tissue and muscle regions and time activity curves were generated, the counts per pixel were used to determine tumor tissue-to-muscle tissue count density ratios.

Ends that are not written are not given here.

As for `[Cl][68Ga]([Cl])[Cl]` [^68GaCl3], the Percentage of uptake is recorded as 1.35±0.35% in series [1] (MCF-7, 30min incubation); 1.79±0.28% in series [1] (MCF-7, 1h incubation); 1.63±0.33% in series [1] (MCF-7, 2h incubation); 1.74±0.21% in series [2] (SK-BR-3, 30min incubation); 1.80±0.20% in series [2] (SK-BR-3, 1h incubation); 2.21±0.11% in series [2] (SK-BR-3, 2h incubation).

As to EEEEEE [^68Ga-GAP, metal not drawn], the Percentage of uptake in series [1] (MCF-7, 30min incubation) is reported as 2.20±0.73%; in series [1] (MCF-7, 1h incubation), 3.20±1.17%; in series [1] (MCF-7, 2h incubation), 2.43±0.71%; in series [2] (SK-BR-3, 30min incubation), 1.84±0.27%; in series [2] (SK-BR-3, 1h incubation), 3.11±1.29%; in series [2] (SK-BR-3, 2h incubation), 2.45±0.21%. The tissue to tissue ratio at 0.5 h in series [3] (30 min) came to 1.1 ± 0.02. The tissue to tissue ratio at 1 h in series [3] (60 min) is 1.2 ± 0.01. Moreover, the tissue to tissue ratio at 1.5 h in series [3] (90 min) worked out at 1.2 ± 0.02.
